# According to the RepoRT retention time repository:
# Assay: Waters ACQUITY UPLC HSS T3, 0.4 mL/min; A: water + 0.1% formic acid; B: acetonitrile + 0.1% formic acid; gradient (min/%B) 0/5 1.5/5 12/95 14/95 14.01/100 17/100
# Details: stereoisomer not certain
row,Compound,LC retention time [min]
1,Nc1ncnc2c1ncn2C1OC(CO)C(OP(=O)(O)O)C1O (stereo not drawn),0.934
2,CC(=O)OCCC(N)C(=O)O (stereo not drawn),0.912
3,CCCCCCCCCCCCCCCCCC(=O)OCC(O)COP(=O)(O)OCC(O)CO (stereo not drawn),5.64
4,CCC=CCC=CCC=CCCCCCCCC(=O)OC(COC(=O)CCCCCCCCCCCCCCC)COP(=O)(O)OCC(O)CO (stereo not drawn),13.9
5,C=C(CCC)C(N)C(=O)O (stereo not drawn),0.818
6,CCC(C)C(=O)OC1CC(C)(O)C=C2C=CC(C)C(CCC3CC(O)CC(=O)O3)C21 (stereo not drawn),5.18
7,CCCCCC(C)S (stereo not drawn),1.3
8,CC(O)C1CCC2C3CCC4=CC(=O)CCC4(C)C3CCC12C (stereo not drawn),11.8
9,CC1(O)CCC(C(C)(C)OC2OC(CO)C(O)C(O)C2O)CC1O (stereo not drawn),5.08
10,CCC=CCC=CCC=CCC=CCC=CCC=CCCC(=O)OCC(O)COP(=O)(O)OCCN (stereo not drawn),4.65
11,CCC=CCC=CCC=CCC=CCC=CCC=CCCC(=O)OC(CO)COP(=O)(O)OCCN (stereo not drawn),4.65
12,CC1(C)OC2(C)CC(O)C1CC2OC1OC(CO)C(O)C(O)C1O (stereo not drawn),3.99
13,CC12CCC(=O)C=C1CCC1C2C(O)CC2(C)C(C(O)CC(=O)O)CCC12 (stereo not drawn),5.01
14,O=C(O)CCNCC(=O)O,0.786
15,CC(CCC(=O)NCCS(=O)(=O)O)C1CCC2C3C(O)C(O)C4CC(O)CCC4(C)C3CCC12C (stereo not drawn),4.43
16,CC(CCc1ccccc1)NCC(O)c1ccc(O)c(C(N)=O)c1 (stereo not drawn),4.52
17,C[N+](C)(C)CCOP(=O)([O-])OCC(O)CO (stereo not drawn),0.761
18,CC1OC(CC(=O)O)Cc2c1c(O)c1c(O)c(-c3cc(=O)c4c(=O)c5c(c(=O)c=4c3=O)C(C)OC(CC(=O)O)C5)cc(O)c1c2O (stereo not drawn),1.05
19,CCCC(=O)OCCC(S)CCC (stereo not drawn),0.838
20,CCCCC(S)CCOC (stereo not drawn),0.75
21,CSCCC(N)C(=O)O (stereo not drawn),1.04

row,Compound,LC retention time [min]
1,CC(=CC(O)C1OC1(C)C)C1CCC2(C)C1C(O)CC1C3(C)CCC(O)C(C)(C)C3C(OC3OC(CO)C(O)C(O)C3O)CC12C (stereo not drawn),9.9
2,CCCCCCCCC=CCCCCCCCC(=O)OC(CC(=O)[O-])C[N+](C)(C)C (stereo not drawn),9.56
3,CC=CC=CC=CC1=NCCCC1,9.09
4,CCC=CCC=CCC(O)C=CC=CC=CC(O)CCCC(=O)O (stereo not drawn),4.99
5,CC12CCC(O)(CC1OC1OC(CO)C(O)C(O)C1O)C(C)(C)O2 (stereo not drawn),3.99
6,CCCC(N)C(=O)O (stereo not drawn),1.02
7,Nc1nc2c(ncn2C2CC(O)C(COP(=O)(O)O)O2)c(=O)[nH]1 (stereo not drawn),0.934
8,CCCCC(CC)CS (stereo not drawn),0.766
9,C=CC1(CO)CCC(C(C)(C)OC2OC(CO)C(O)C(O)C2O)O1 (stereo not drawn),3.99
10,Cc1cc(O)c2c(c1O)C(=O)C1=C(C2=O)C(=O)C2C(O)C1C1C(O)CC(=O)C3=C(O)c4c(O)cc(C)c(O)c4C(=O)C321 (stereo not drawn),1.11
11,CN1CC(=O)NC1=N,0.794
12,Nc1nc2c(ncn2CCC(CO)CO)c(=O)[nH]1,1.03
13,CC(CCC(=O)NCCS(=O)(=O)O)C1CCC2C3C(O)CC4CC(O)CCC4(C)C3CC(O)C12C (stereo not drawn),4.43
14,NCCC(=O)O,0.806
15,CCCCCCCCCCCCCCCCCCCCCCCCC(=O)NCC(=O)O,9.77
16,CCCCCC=CCC=CCC=CCCCCC(=O)OC(COC(=O)CCCCCCCCCCCCCCC)COP(=O)(O)OCC(O)CO (stereo not drawn),13.9
17,CCCC(=O)OC(CC(=O)[O-])C[N+](C)(C)C (stereo not drawn),3
18,CC(C)SC(C)C,1.02
19,CC(=O)OCC(N)C(=O)O (stereo not drawn),0.786
20,CC(NC(=O)C(N)CC(=O)O)NC(=O)N(C)C(C)(C)C (stereo not drawn),0.829
21,CCCCCCCCCCCCCCCCCCOC(=O)CC(O)(CC(=O)O)C(=O)O (stereo not drawn),10.5

row,Compound,LC retention time [min]
1,CCCCCC=CCC=CCCCCCCCC(=O)OCC(COP(=O)(O)OCC(O)CO)OC(=O)CCCCCCCC=CCCCCCC (stereo not drawn),13.9
2,CCC=CCC(O)C(O)C=CC=CC=CC=CC(O)CC=CCCC(=O)O (stereo not drawn),5.01
3,COc1ccc(COC2OC(CO)C(O)C(O)C2OS(=O)(=O)O)cc1 (stereo not drawn),0.842
4,CNCC(=O)O,0.806
5,C[N+](C)(C)CCO,0.706
6,CC1CCC2C(C)C3C(CC4C5CC=C6CC(OC7OC(CO)C(O)C(OC8OC(CO)C(O)C(O)C8O)C7O)CCC6(C)C5CCC43C)N2C1 (stereo not drawn),9.86
7,CC(C)CC(NC(=O)OC(C)(C)C)C(=O)O (stereo not drawn),3
8,CNC(C)(C)C(=O)O,1.02
9,CCC=CCC(O)C=CC=CC=CC=CC(O)C(O)CC=CCCC(=O)O (stereo not drawn),5.01
10,CC(C)C1=CC2(O)CCC3C(C)(C(=O)O)CCCC3(C)C2CC1=O (stereo not drawn),4.99
11,CCCCCC=CCC=CCC=CCCCCC(=O)OCC(COP(=O)(O)OCC(O)CO)OC(=O)CCCCCCCCCCCCCCC (stereo not drawn),13.9
12,CC1(C)OC2(C)C(O)CC1CC2OC1OC(CO)C(O)C(O)C1O (stereo not drawn),3.99
13,CC1(C)CCC2(C(=O)O)CCC3(C)C(=CCC4C5(C)CC(O)C(OC(=O)C=Cc6ccc(O)cc6)C(C)(C)C5CCC43C)C2C1 (stereo not drawn),11
14,C[N+](C)(C)CC(O)CC(=O)[O-] (stereo not drawn),0.75
15,C=C(CO)C1CCC(C)(O)C(OC2OC(CO)C(O)C(O)C2O)C1 (stereo not drawn),3.99
16,CC(=CC(=O)OC1OC(CO)C(O)C(O)C1O)CCC=C(C)CCC(O)C(C)(C)O (stereo not drawn),9.03
17,CC(C)C(CCC(C)C1CC(O)C2C1(C)CCC1C3(C)CCC(OC4OCC(O)C(O)C4O)CC3C(O)CC12O)OC1OCC(O)C(O)C1O (stereo not drawn),5.56
18,O=C(O)CCCSCCCCSCCCC(=O)O,0.766
19,C[N+](C)(C)CCCC(=O)[O-],0.772
20,COc1cc2c(cc1OC)CN(C)CC2,4.98
21,CCC(C)C(N)C(=O)O (stereo not drawn),1.31

row,Compound,LC retention time [min]
1,CNC(CC(=O)O)C(=O)O (stereo not drawn),0.786
2,CCCCCC(=O)OCCC(CCC)SC (stereo not drawn),3.91
3,CC(=O)C1CCC2C3CC=C4CC(O)CCC4(C)C3CCC12C (stereo not drawn),11.8
4,CC(C=CCC1C(=O)CCC1CC(=O)O)OC1OC(CO)C(O)C(O)C1O (stereo not drawn),0.755
5,CCCCCCC=CC=CCCCCCCCC(=O)OC(COC(=O)CCCCCCCCC(C)C)COP(=O)(O)OCC(O)CO (stereo not drawn),12.1
6,Nc1ccnc(=O)[nH]1,1.02
7,NC(=O)c1cccnc1,1.06
8,CCCCCCCCCCCCCCCCCCOC(=O)C(O)(CC(=O)O)CC(=O)O,10.5
9,O=c1[nH]cnc2[nH]ncc12,1.1
10,CC(C)CC(N)C(=O)O (stereo not drawn),1.31
11,CCCCCCCCCCCCCCCCCC(=O)NC(Cc1ccc(O)cc1)C(=O)O (stereo not drawn),9.13
12,CN(C)C,0.706
13,C=C(C)C1CCC2(C(=O)O)CCC3(C)C(CCC4C5(C)CC(O)C(OC(=O)C=Cc6ccc(O)cc6)C(C)(C)C5CCC43C)C12 (stereo not drawn),11
14,OC1CC2CC(O)C(C1)N2 (stereo not drawn),0.818
15,CCCCCC(O)C=CC=CCC=CCC=CCCCC(=O)NCCS(=O)(=O)O (stereo not drawn),4.09
16,CCCCCCCCCCCCCCCCCCC(=O)OCC(O)COP(=O)(O)OCC(N)C(=O)O (stereo not drawn),5.17
17,CCCCCCOC(=O)CC(C)S (stereo not drawn),0.838
18,CC(C)=CC1c2[nH]c3ccccc3c2CC2C(=O)N3CCCC3C(=O)N21 (stereo not drawn),3.99
19,NCCS(=O)(=O)O,0.777
20,OCCOCCOCCOCCOCCOCCOCCO,3.99
